Test results published in patent US10465171B2, “7β-hydroxysteroid dehydrogenases and their use” (PharmaZell GmbH, priority 2009, dated 2019).
“Also recorded” adds a separate entry of the source.

Experiments:
[1] = target: T1, 7β-HSDH from Collinsella aerofaciens DSM 3979 (Collinsella aerofaciens, UniProt A4ECA9); format: biochemical
[2] = system: 7β-HSDH enzyme from C. aerofaciens ATCC25986 described by Hirano et al; set-up: unit not given here; settings: enzyme of Hirano et al; cited from earlier work
[3] = target: 7β-HSDH from Collinsella aerofaciens ATCC 25986 (DSM 3979) (Collinsella aerofaciens, UniProt A4ECA9); test: Photometric identification of 7β-HSDH activity (cell extract of E. coli expressing the candidate); format: biochemical; settings: 0.1 mM test substance, potassium phosphate buffer 50 mM pH 8, in the presence of NADP+ or NADPH
Chain of 7β-HSDH from Collinsella aerofaciens ATCC 25986 (DSM 3979) (A4ECA9 whole entry): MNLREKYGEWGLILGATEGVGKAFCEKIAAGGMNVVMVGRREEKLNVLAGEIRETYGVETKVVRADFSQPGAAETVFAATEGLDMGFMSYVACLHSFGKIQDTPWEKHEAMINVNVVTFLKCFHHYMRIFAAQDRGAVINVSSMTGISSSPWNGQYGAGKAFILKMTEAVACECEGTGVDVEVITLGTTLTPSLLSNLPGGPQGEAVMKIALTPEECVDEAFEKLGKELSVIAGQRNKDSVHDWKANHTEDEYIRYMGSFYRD
Method: The expression was performed in 50 ml of LB medium. For the preparation of preculture, one colony on an LB agar plate was picked and incubated overnight at 37° C. and 160 Rpm in 5 ml of LB medium (contains relevant antibiotics) a. The 50 ml of LB medium (contains relevant antibiotics) was inoculated with 500 pi of preculture. The culture was incubated at 37° C. and 160 Rpm. Up to OD600 ca. 0.8, expression was induced by addition of 0.5 mM IPTG. After 6 hrs or one night, the cells were centrifuged down. The pellets were resuspended in 6 ml of potassium phosphate buffer (50 mM, pH 8, contains 0.1 mM PMSF) and disintegrated with ultrasound. The cell fragments were removed by centrifugation.
For the identification of 7β-HSDH activity the activity was tested by photometric methods. For this, enzyme and 0.1 mM of test substance (UDCA) in potassium phosphate buffer (50 mM, pH 8) were mixed in a 1 ml cuvette. After addition of NADPH(NADH) or NADP^+ (NAD^+), the degradation or formation of NAD(P)H was measured.

[4] = target: T1, 7β-HSDH from Collinsella aerofaciens DSM 3979; test: Preparative biotransformation of 7-keto-LCA by 7β-HSDH with ADH cofactor regeneration, HPLC analysis; format: biochemical; settings: 0.4 g 7-keto-LCA, 100 U 7β-HSDH, 24° C., 24 hours, pH 8
Method: The conversion of 7-keto-LCA by 7β-HSDH was performed in order to verify the biochemical function of 7β-HSDH. 0.4 g of 7-keto-LCA were suspended in 10 ml of potassium phosphate buffer (50 mM, pH 8) and the pH was adjusted to pH 8 by addition of 2M sodium hydroxide. 0.2 ml of isopropanol, 100 U of 7β-HSDH and 80 U of alcohol dehydrogenase (ADH-TE) from Thermoanaerobacter ethanolicus (kindly donated by Dr. K. Momoi, ITB University, Stuttgart) and 1 μmol NADP^+ were added. The same buffer was added, so as to obtain a total reaction volume of 20 ml. The reaction mixture was incubated at 24° C. and stirred for 24 hours. During this, NADPH was regenerated by means of ADH via the oxidation of 2-propanol. […]
An HPLC analysis was performed on a column of the Purospher® STAR RP-18 type (Hitbar® RT 125-4 Pre-Packed Column, Purospher® STAR RP-18 endcapped, Merck, Germany), equipped with a precolumn of the LiChroCART® STAR RP18 type (endcapped, Merck, Germany) on an LC20AD HPLC system (Shimadzu, Japan) at a flow rate of 1 ml/min. […] 20 μl sample (1 mg/ml) were analyzed. […]
To confirm the function of the enzyme, a biotransformation of 7-keto-LCA on the […] was performed, wherein the isolated enzyme was used in combination with ADH for the regeneration of NADPH with the use of 2-propanol, as already described. […] CDCA (retention time 19.4 min) was not detected in the reaction mixture.

T1 sequence (A4ECA9 whole entry): as above

Row | Molecule | kcat [1] | activity [3] | other results
1 | NC(=O)c1ccc[n+]([C@@H]2O[C@H](COP(=O)([O-])OP(=O)(O)OC[C@H]3O[C@@H](n4cnc5c(N)ncnc54)[C@H](O)[C@@H]3O)[C@@H](O)[C@H]2O)c1 [NAD^+] | traces |  | activity as coenzyme [1]: very low activity
2 | NC(=O)c1ccc[n+]([C@@H]2O[C@H](COP(=O)([O-])OP(=O)(O)OC[C@H]3O[C@@H](n4cnc5c(N)ncnc54)[C@H](OP(=O)(O)O)[C@@H]3O)[C@@H](O)[C@H]2O)c1 [NADP^+] |  |  | Vmax [2]: 0.2; Vmax [1]: 30.58 U/mg protein
3 | NC(=O)C1=CN([C@@H]2O[C@H](COP(=O)(O)OP(=O)(O)OC[C@H]3O[C@@H](n4cnc5c(N)ncnc54)[C@H](O)[C@@H]3O)[C@@H](O)[C@H]2O)C=CC1 [NADH] | traces |  | activity as coenzyme [1]: very low activity
4 | C[C@H](CCC(=O)O)[C@H]1CC[C@H]2[C@@H]3C(=O)C[C@@H]4CC(=O)CC[C@]4(C)[C@H]3CC(=O)[C@]12C [DHCA, Dehydrocholic acid] |  | 119 U/ml | 
5 | C[C@H](CCC(=O)O)[C@H]1CC[C@H]2[C@@H]3[C@H](O)C[C@@H]4C[C@H](O)CC[C@]4(C)[C@H]3C[C@H](O)[C@]12C [CA, Cholic acid] |  | no activity; also recorded: not detectable | 
6 | NADPH | 1033.44 1 μmol/(μmol × min) |  | Vmax [1]: 33.44 U/mg protein
7 | C[C@H](CCC(=O)O)[C@H]1CC[C@H]2[C@@H]3C(=O)C[C@@H]4C[C@H](O)CC[C@]4(C)[C@H]3CC[C@]12C [7-keto-LCA, 7-keto-lithocholic acid] |  | 35 U/ml | conversion to UDCA [4]: 90%
8 | C[C@H](CCC(=O)O)[C@H]1CC[C@H]2[C@@H]3[C@@H](O)C[C@@H]4C[C@H](O)CC[C@]4(C)[C@H]3CC[C@]12C [UDCA, Ursodeoxycholic acid] |  | 60 U/ml | 
